Results as given in patent US9526785B2, “Pharmaceuticals for oral delivery” (Enteris BioPharma, Inc., priority 2013, dated 2016).
Read-outs that look alike come from different tables or passages of the source.

Test: Tigecycline plasma PK and % F after PO enteric-coated capsule in dogs
Assay type: in vivo, Beagle dogs
Settings: for concentration at 0 min: Time (min) 0.0; for concentration at 0.3 min: Time (min) 0.3; for concentration at 0.7 min: Time (min) 0.7; for concentration at 24 min: Time (min) 24.0; for Predicted AUC(0-t), % Difference / Predicted Mean Cmax, % Difference: observed vs predicted from 15 mg results; for Predicted AUC(0-t) / Predicted Mean Cmax: predicted from 15 mg results
Experimental: Adult beagle dogs weighing approximately 9 to 15 kg were used in the study. […] Room temperature was set to be maintained between approximately 20±5° C. Relative humidity was monitored but not controlled.
TEKLAD™ Certified Canine Diet was provided once daily in amounts (˜400 grams) appropriate for the size and age of the animals. Tap water was available ad libitum via automatic watering device or water bowls.
Oral dosing of enteric-coated capsules was accomplished by administering them to the back of the dog's mouth, followed by a chase of 5 mL water to ensure swallowing.
Water was provided ad libitum. […] Subsequently, each group of animals was dosed based on the protocol, i.e. either IV, or PO by capsule.
Minocycline (VWR international) was used as an internal standard. Sample processing/clean-up of plasma samples was carried out offline by protein precipitation with acidified acetonitrile using 0.5% trifluoroacetic acid (TFA).
The HPLC system consisted of Shimadzu SIL-HTc HPLC system equipped with dual Shimadzu LC-10ADvp isopumps, a Shimadzu CTO-10ASvp column temperature controller and a Shimadzu SPD-10Avp variable wavelength detector. […] Mobile phase A consisted of 23 mM phosphate buffer pH 2.5 with 4 mM 1-octanesulfonic acid, while mobile phase B consisting of 90% acetonitrile, 10% water, with 2 mM 1-octanesulfonic acid. […] The total runtime was 18 minutes per sample. The mobile phase flow rate was 1.2 mL/min. Detection was performed using the SPD-10Avp variable wavelength detector set at 350 nm, with a sensitivity of 0.001 aufs.
The samples were then centrifuged under refrigeration at 13 k rpm for 5 minutes. The supernatant was taken and the liquid removed to dryness under nitrogen in a turbovap. The dried extract was reconstituted in 60 μL of mobile phase A and the suspension was further centrifuged at 5 k rpm for 5 minutes to pellet any insoluble matter. The resulting supernatant was then injected onto the LC.
The unknown concentration in dog plasma samples was determined by interpolation of the peak area ratios of analyte:internal standard versus the ratio of their nominal concentrations into the regression line obtained from calibration standards spiked in pooled dog plasma. No regression weighting was used for the calculations. […] The calibration curve covered the range of 0.05 μg/mL to 5 μg/mL. […]
The capsules were enterically coated using a standard preclinical protocol to 10% weight gain. Two studies were conducted.

[1] = female, beagle, dog, plasma, po, 45 mg, Tigecycline Plasma Concentration, PO 45 mg enteric-coated capsule with 500 mg CA and 100 mg LLC, SC430, individual dogs
[2] = female, beagle, dog, plasma, po, 45 mg, Tigecycline Plasma Concentration, PO 45 mg enteric-coated capsule with 500 mg CA and 100 mg LLC, SC430, mean

CN(C)c1cc(NC(=O)CNC(C)(C)C)c(O)c2c1C[C@H]1C[C@H]3[C@H](N(C)C)C(O)=C(C(N)=O)C(=O)[C@@]3(O)C(O)=C1C2=O [Tigecycline]
Tmax (female, beagle, dog, plasma, po, 45 mg, 45 mg Formulated (500 mg CA, 100 mg LLC) enteric coated capsule, Study 2 (SC430), mean (% CV), read-out: Tmax (converted)): 1.67 h | AUC(0-t) (female, beagle, dog, plasma, po, 45 mg, PO 45 mg enteric-coated capsule with 500 mg CA and 100 mg LLC (SC430), read-out: AUC(0-t), mean): 574 ng·h/mL | Cmax (female, beagle, dog, plasma, po, 45 mg, PO 45 mg enteric-coated capsule with 500 mg CA and 100 mg LLC (SC430), read-out: Cmax, mean): 177 ng/mL | bioavailability (female, beagle, dog, plasma, po, 45 mg, PO 45 mg enteric-coated capsule with 500 mg CA and 100 mg LLC (SC430), read-out: absolute % F, mean): 15.5% | AUC(0-t) (female, beagle, dog, plasma, po, 45 mg, PO 45 mg enteric-coated capsule with 500 mg CA and 100 mg LLC ([…]), SC430, mean, read-out: AUC(0-t)): 574 ng·h/mL | Cmax (female, beagle, dog, plasma, po, 45 mg, PO 45 mg enteric-coated capsule with 500 mg CA and 100 mg LLC ([…]), SC430, mean, read-out: Cmax): 177 ng/mL | Tmax (female, beagle, dog, plasma, po, 45 mg, PO 45 mg enteric-coated capsule with 500 mg CA and 100 mg LLC ([…]), SC430, mean, read-out: Tmax (converted)): 1.67 h | bioavailability (female, beagle, dog, plasma, po, 45 mg, PO 45 mg enteric-coated capsule with 500 mg CA and 100 mg LLC, SC430, calculated from IV PK data of SC431, mean, read-out: % F): 15.5% | bioavailability (female, beagle, dog, plasma, po, 45 mg, Study 2 (SC430), 45 mg Formulated enteric coated capsule (500 mg citric acid, 100 mg LLC), oral, dogs, N=5, mean (% CV), based on that study's IV arm, read-out: % F): 15.5% | Tmax (female, beagle, dog, plasma, po, 45 mg, Study 2 (SC430), 45 mg Formulated enteric coated capsule (500 mg citric acid, 100 mg LLC), oral, dogs, N=5, mean (% CV), read-out: Tmax (converted)): 1.67 h | AUC(0-t) (female, beagle, dog, plasma, po, 45 mg, Study 2 (SC430), 45 mg Formulated enteric coated capsule (500 mg citric acid, 100 mg LLC), oral, dogs, N=5, mean (% CV), sampling 24 h, read-out: AUC(0-t)): 574 ng·h/mL | Cmax (female, beagle, dog, plasma, po, 45 mg, Study 2 (SC430), 45 mg Formulated enteric coated capsule (500 mg citric acid, 100 mg LLC), oral, dogs, N=5, mean (% CV), sampling 24 h, read-out: Cmax): 177 ng/mL | concentration at 0 min [1]: 0 ng/mL | concentration at 0 min [2]: 0 ng/mL | concentration at 0.3 min [1]: 0 ng/mL | concentration at 0.3 min [2]: 0 ng/mL | concentration at 0.7 min [1]: 0 ng/mL | concentration at 0.7 min [2]: 0 ng/mL | concentration at 1 min (female, beagle, dog, plasma, po, 45 mg, Tigecycline Plasma Concentration, Time (min) 1.0, PO 45 mg enteric-coated capsule with 500 mg CA and 100 mg LLC, SC430, mean): 56.4 ng/mL | concentration at […] (female, beagle, dog, plasma, po, 45 mg, Tigecycline Plasma Concentration, Time (min) 1.3, PO 45 mg enteric-coated capsule with 500 mg CA and 100 mg LLC, SC430, mean): 58.3 ng/mL | concentration at […] (female, beagle, dog, plasma, po, 45 mg, Tigecycline Plasma Concentration, Time (min) 1.7, PO 45 mg enteric-coated capsule with 500 mg CA and 100 mg LLC, SC430, mean): 101 ng/mL | concentration at 2 min (female, beagle, dog, plasma, po, 45 mg, Tigecycline Plasma Concentration, Time (min) 2.0, PO 45 mg enteric-coated capsule with 500 mg CA and 100 mg LLC, SC430, mean): 144 ng/mL | concentration at […] (female, beagle, dog, plasma, po, 45 mg, Tigecycline Plasma Concentration, Time (min) 2.3, PO 45 mg enteric-coated capsule with 500 mg CA and 100 mg LLC, SC430, mean): 108 ng/mL | concentration at […] (female, beagle, dog, plasma, po, 45 mg, Tigecycline Plasma Concentration, Time (min) 2.7, PO 45 mg enteric-coated capsule with 500 mg CA and 100 mg LLC, SC430, mean): 98.6 ng/mL | concentration at 3 min (female, beagle, dog, plasma, po, 45 mg, Tigecycline Plasma Concentration, Time (min) 3.0, PO 45 mg enteric-coated capsule with 500 mg CA and 100 mg LLC, SC430, mean): 76.5 ng/mL | concentration at […] (female, beagle, dog, plasma, po, 45 mg, Tigecycline Plasma Concentration, Time (min) 3.3, PO 45 mg enteric-coated capsule with 500 mg CA and 100 mg LLC, SC430, mean): 68.7 ng/mL | concentration at […] (female, beagle, dog, plasma, po, 45 mg, Tigecycline Plasma Concentration, Time (min) 3.7, PO 45 mg enteric-coated capsule with 500 mg CA and 100 mg LLC, SC430, mean): 62 ng/mL | concentration at 4 min (female, beagle, dog, plasma, po, 45 mg, Tigecycline Plasma Concentration, Time (min) 4.0, PO 45 mg enteric-coated capsule with 500 mg CA and 100 mg LLC, SC430, mean): 51.7 ng/mL | concentration at […] (female, beagle, dog, plasma, po, 45 mg, Tigecycline Plasma Concentration, Time (min) 4.5, PO 45 mg enteric-coated capsule with 500 mg CA and 100 mg LLC, SC430, mean): 48.9 ng/mL | concentration at 5 min (female, beagle, dog, plasma, po, 45 mg, Tigecycline Plasma Concentration, Time (min) 5.0, PO 45 mg enteric-coated capsule with 500 mg CA and 100 mg LLC, SC430, mean): 50.6 ng/mL | concentration at […] (female, beagle, dog, plasma, po, 45 mg, Tigecycline Plasma Concentration, Time (min) 5.5, PO 45 mg enteric-coated capsule with 500 mg CA and 100 mg LLC, SC430, mean): 42.5 ng/mL | concentration at 6 min (female, beagle, dog, plasma, po, 45 mg, Tigecycline Plasma Concentration, Time (min) 6.0, PO 45 mg enteric-coated capsule with 500 mg CA and 100 mg LLC, SC430, mean): 35.2 ng/mL | concentration at 8 min (female, beagle, dog, plasma, po, 45 mg, Tigecycline Plasma Concentration, Time (min) 8.0, PO 45 mg enteric-coated capsule with 500 mg CA and 100 mg LLC, SC430, mean): 22.9 ng/mL | concentration at 10 min (female, beagle, dog, plasma, po, 45 mg, Tigecycline Plasma Concentration, Time (min) 10.0, PO 45 mg enteric-coated capsule with 500 mg CA and 100 mg LLC, SC430, mean): 16.8 ng/mL | concentration at 24 min [1]: 0 ng/mL | concentration at 24 min [2]: 0 ng/mL | Cmax (female, beagle, dog, plasma, po, 45 mg, target dose 45 mg, enterically coated capsule, read-out: Observed Mean Cmax): 177 ng/mL | AUC(0-t) (female, beagle, dog, plasma, po, 45 mg, target dose 45 mg, enterically coated capsule, time scale adjusted to 4 hours, read-out: Observed AUC(0-t)): 266 ng·h/mL | Tmax (female, beagle, dog, plasma, po, all studied oral formulations, read-out: Tmax, mean (converted)): ~1.67 h | Predicted AUC(0-t), % Difference (target dose 30 mg): −23.9% | Predicted Mean Cmax, % Difference (target dose 30 mg): −24.8% | Predicted AUC(0-t) (target dose 30 mg): 265 ng·h/mL | Predicted Mean Cmax (target dose 30 mg): 151 ng/mL | Predicted AUC(0-t), % Difference (target dose 45 mg): −49.4% | Predicted Mean Cmax, % Difference (target dose 45 mg): −28.0% | Predicted AUC(0-t) (target dose 45 mg): 398 ng·h/mL | Predicted Mean Cmax (target dose 45 mg): 226 ng/mL
